Measured values from patent publication US20260274814A1, “THIENYL COMPOUNDS FOR THE TREATMENT OF A CENTRAL NERVOUS SYSTEM DISEASE OR DISORDER” (Coreterra Therapeutics, Inc., priority 2023, published 2026).
Counter-ions that a name gives are not always drawn.

Test system: mice
Assay: Neuropharmacological Assay (SmartCube): automated behavioral signature of compound-treated mice compared with a database of reference drug classes
Assay type: in vivo
Conditions: for minimal effective dose: Mus musculus, ip, read-out: MED (minimal effective dose); for minimal effective dose / MED (minimal effective dose): dose having 45% or more total activity in SmartCube, i.p., if only one dose was tested, that dose is shown; for AD / AG / AN / AP / AX / CE / HL / MS / PS / SH / UK: probability that activity matches this class of agents, 3.0 mg/kg i.p., 15 min before test
Description: Neurosci. 2011 Sep. 9; 5: 103 (doi: 10.3389/fnins.2011.00103) (“Roberds”). As reported in Roberds, because psychiatric diseases generally result from disorders of cell-cell communication or circuitry, intact systems are useful in detecting improvement in disease-relevant endpoints. These endpoints are typically behavioral in nature, often requiring human observation and interpretation. To facilitate testing of multiple compounds for behavioral effects relevant to psychiatric disease, PsychoGenics, Inc. (Tarrytown, NY, “PGI”) developed SmartCube™ an automated system in which behaviors of compound-treated mice are captured by digital video and analyzed with computer algorithms. (D. Brunner et al. Drug Discov. Today 2002, 7:S107-S112). PGI Analytical Systems uses data from SmartCube™ to compare the behavioral signature of a test compound to a database of behavioral signatures obtained using a large set of diverse reference compounds. (The composition of the database as well as validation of the method is further described in Roberds). In this way, the neuropharmacological effects of a test compound can be predicted by similarity to major classes of compounds, such as antipsychotics, anxiolytics and antidepressants.
The SmartCube™ system produces an activity signature indicating the probability that the activity of the test compound at the administered dose matches a given class of neuropharmacological agents. (See, e.g., Roberds, FIGS. 2 and 3). The test compound is simultaneously compared against multiple classes of agents; thus, a separate probability is generated for each behavioral effect measured (e.g., anxiolytic activity, analgesic activity, etc.). In table 2 below, these probabilities are reported for each behavioral effect measured as described in Table 1 below.
Provided compounds were dissolved in a mixture of Pharmasolve™ (N-methyl-2-pyrrolidone), polyethylene glycol and propylene glycol, and were injected i.p. 15 min. before the behavioral test. For each compound, injections were administered at 3 different doses. For each behavioral effect measured, results for the 3.0 mg/kg dose are presented. The potency of many of the compounds in the table was also determined in the SmartCube™ system. Test compounds were routinely examined at dose levels of 0.3, 1, 3 and 10 mg per kg (mpk), although the dose range was increased or decreased, if necessary, to obtain a full dose response curve. A compound's minimal effective dose (MED) is a measure of the compound's potency. The MED was defined as the dose (in mpk) having 45% or more total activity in SmartCube. If only one dose was tested, that dose is shown in the MED column of Table 2 even though the dose is not known to be the MED.

Cc1cc2c(s1)CC(N(C)C)CC2.Cl (single isomer, unassigned) [Compound 34, N,N, 2-trimethyl-4,5,6,7-tetrahydrobenzothiophen-6-amine hydrochloride]
minimal effective dose: 10 mg/kg | AD: ND (^ <4%) | AG: ND (^ <4%) | AN: ND (^ <4%) | AP: ND (^ <4%) | AX: ND (^ <4%) | CE: ND (^ <4%) | HL: ND (^ <4%) | MS: ND (^ <4%) | PS: ND (^ <4%) | SH: ND (^ <4%) | UK: ++ (≥24%)

Cc1cc2c(s1)CC(N(C)C)CC2.Cl (single isomer, unassigned) [Compound 35, N,N, 2-trimethyl-4,5,6,7-tetrahydrobenzothiophen-6-amine hydrochloride]
MED (minimal effective dose): 10 mpk | AD: ND (^ <4%) | UK: ++ (≥24%)

CNC1CCc2cc(C#N)sc2C1 (single isomer, unassigned) [Compound 36, 6-(methylamino)-4,5,6,7-tetrahydrobenzothiophene-2-carbonitrile hydrochloride]
minimal effective dose: 3 mg/kg | AD: ND (^ <4%) | AG: ND (^ <4%) | AN: ND (^ <4%) | AX: ND (^ <4%) | CE: ND (^ <4%) | HL: ND (^ <4%) | MS: ND (^ <4%) | PS: ND (^ <4%) | SH: ND (^ <4%) | AP (hydrochloride, 3 mg/kg): +++ (≥49%) | UK (hydrochloride, 3 mg/kg): ++ (≥24%)

CNC1CCc2cc(C#N)sc2C1 (single isomer, unassigned) [Compound 37, 6-(methylamino)-4,5,6,7-tetrahydrobenzothiophene-2-carbonitrile hydrochloride]
MED (minimal effective dose): 3.0 mpk | AD: ND (^ <4%) | AG: ND (^ <4%) | AN: ND (^ <4%) | AX: ND (^ <4%) | CE: ND (^ <4%) | HL: ND (^ <4%) | MS: ND (^ <4%) | PS: ND (^ <4%) | SH: ND (^ <4%) | AP (hydrochloride, 3 mg/kg): ND (^ <4%) | UK (hydrochloride, 3 mg/kg): +++ (≥49%)

CNC1CCc2cc(C(F)(F)F)sc2C1 (single isomer, unassigned) [Compound 38, N-methyl-2-(trifluoromethyl)-4,5,6,7-tetrahydrobenzothiophen-6-amine]
minimal effective dose: 3 mg/kg | AG: ND (^ <4%) | AN: ND (^ <4%) | AX: ND (^ <4%) | CE: ND (^ <4%) | HL: ND (^ <4%) | MS: ND (^ <4%) | PS: ND (^ <4%) | SH: ND (^ <4%) | AD (3 mg/kg): ND (^ <4%) | AP (3 mg/kg): ND (^ <4%) | UK (3 mg/kg): ++ (≥24%)

CNC1CCc2cc(C(F)(F)F)sc2C1 (single isomer, unassigned) [Compound 39, N-methyl-2-(trifluoromethyl)-4,5,6,7-tetrahydrobenzothiophen-6-amine]
MED (minimal effective dose): 3.0 mpk | AG: ND (^ <4%) | AN: ND (^ <4%) | AX: ND (^ <4%) | CE: ND (^ <4%) | HL: ND (^ <4%) | MS: ND (^ <4%) | PS: ND (^ <4%) | SH: ND (^ <4%) | AD (3 mg/kg): +++ (≥49%) | AP (3 mg/kg): ++ (≥24%) | UK (3 mg/kg): ND (^ <4%)

CNC1CCc2csc(C)c2C1.Cl (single isomer, unassigned) [Compound 40, N, 3-dimethyl-4,5,6,7-tetrahydro-2-benzothiophen-5-amine hydrochloride]
minimal effective dose: 1 mg/kg | AG: ND (^ <4%) | AN: ND (^ <4%) | AP: ++ (≥24%) | CE: ND (^ <4%) | HL: ND (^ <4%) | MS: ND (^ <4%) | PS: ND (^ <4%) | SH: ND (^ <4%) | UK: ND (^ <4%) | AD (hydrochloride, 3 mg/kg): ND (^ <4%) | AX (hydrochloride, 3 mg/kg): +++ (≥49%)

CNC1CCc2csc(C)c2C1.Cl (single isomer, unassigned) [Compound 41, N, 3-dimethyl-4,5,6,7-tetrahydro-2-benzothiophen-5-amine hydrochloride]
MED (minimal effective dose): 1.0 mpk | AG: ND (^ <4%) | AN: ND (^ <4%) | AP: ++ (≥24%) | CE: ND (^ <4%) | HL: ND (^ <4%) | MS: ND (^ <4%) | PS: ND (^ <4%) | SH: ND (^ <4%) | UK: ND (^ <4%) | AD (hydrochloride, 3 mg/kg): +++ (≥49%) | AX (hydrochloride, 3 mg/kg): ND (^ <4%)

CNC1CCc2c(sc(C)c2C)C1 (single isomer, unassigned) [Compound 42, N, 2,3-trimethyl-4,5,6,7-tetrahydrobenzothiophen-6-amine hydrochloride]
minimal effective dose: 3 mg/kg | AD: ++++ (≥74%) | AG: ND (^ <4%) | AN: ND (^ <4%) | AP: ND (^ <4%) | AX: ND (^ <4%) | CE: ND (^ <4%) | MS: ND (^ <4%) | PS: ND (^ <4%) | SH: ND (^ <4%) | UK: ND (^ <4%) | HL (hydrochloride, 3 mg/kg): ND (^ <4%)

CNC1CCc2c(sc(C)c2C)C1 (single isomer, unassigned) [Compound 43, N, 2,3-trimethyl-4,5,6,7-tetrahydrobenzothiophen-6-amine hydrochloride]
MED (minimal effective dose): 3.0 mpk | AD: ++++ (≥74%) | AG: ND (^ <4%) | AN: ND (^ <4%) | AP: ND (^ <4%) | AX: ND (^ <4%) | CE: ND (^ <4%) | MS: ND (^ <4%) | PS: ND (^ <4%) | SH: ND (^ <4%) | UK: ND (^ <4%) | HL (hydrochloride, 3 mg/kg): + (≥4%)

CNC1CCc2c(C)csc2C1 (single isomer, unassigned) [Compound 44, N, 3-dimethyl-4,5,6,7-tetrahydrobenzothiophen-6-amine hydrochloride]
MED (minimal effective dose) (hydrochloride): 1.0 mpk | AG: ND (^ <4%) | AN: ND (^ <4%) | AX: ND (^ <4%) | CE: ND (^ <4%) | HL: ND (^ <4%) | MS: ND (^ <4%) | PS: ND (^ <4%) | SH: ND (^ <4%) | UK: ND (^ <4%) | AD (hydrochloride, 3 mg/kg): ++ (≥24%) | AP (hydrochloride, 3 mg/kg): +++ (≥49%)

CNC1CCc2c(C)csc2C1 (single isomer, unassigned) [Compound 45, N, 3-dimethyl-4,5,6,7-tetrahydrobenzothiophen-6-amine hydrochloride]
MED (minimal effective dose) (hydrochloride): 0.1 mpk | AG: ND (^ <4%) | AN: ND (^ <4%) | AX: ND (^ <4%) | CE: ND (^ <4%) | HL: ND (^ <4%) | MS: ND (^ <4%) | PS: ND (^ <4%) | SH: ND (^ <4%) | UK: ND (^ <4%) | AD (hydrochloride, 3 mg/kg): ++++ (≥74%) | AP (hydrochloride, 3 mg/kg): + (≥4%)

CNC1COc2ccsc2C1 (single isomer, unassigned) [Compound 46, N-methyl-6,7-dihydro-5H-thieno[3,2-b]pyran-6-amine hydrochloride]
MED (minimal effective dose) (hydrochloride): 10 mpk | AG: ND (^ <4%) | AN: ND (^ <4%) | AP: ND (^ <4%) | CE: ND (^ <4%) | HL: ND (^ <4%) | MS: ND (^ <4%) | PS: ND (^ <4%) | SH: ND (^ <4%) | AD (hydrochloride, 3 mg/kg): ND (^ <4%) | AX (hydrochloride, 3 mg/kg): + (≥4%) | UK (hydrochloride, 3 mg/kg): ++ (≥24%)

CNC1COc2ccsc2C1 (single isomer, unassigned) [Compound 47, N-methyl-6,7-dihydro-5H-thieno[3,2-b]pyran-6-amine hydrochloride]
MED (minimal effective dose) (hydrochloride): 0.3 mpk | AG: ND (^ <4%) | AN: ND (^ <4%) | AP: ND (^ <4%) | CE: ND (^ <4%) | HL: ND (^ <4%) | MS: ND (^ <4%) | PS: ND (^ <4%) | SH: ND (^ <4%) | AD (hydrochloride, 3 mg/kg): ++++ (≥74%) | AX (hydrochloride, 3 mg/kg): ND (^ <4%) | UK (hydrochloride, 3 mg/kg): ND (^ <4%)
